The text below walks through data of PubChem BioAssay (NCI).

Some test systems named below: EKVX NSCLC; HOP-92 NSCLC; K-562 leukemia; MALME-3M melanoma; OVCAR-4 ovarian; OVCAR-5 ovarian; OVCAR-8 ovarian; HCC-2998 colon; SF-539 CNS.
Holding throughout (assay): DTP human tumour cell line panel, 48 h

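Exposure lasted 48 hours, with cells grown in 96-well plates and compounds tested at five concentrations. Here, GI50 denotes the concentration required for 50% inhibition of growth. Definition used: TGI = concentration required for complete inhibition of growth.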

For the compound `COc1c(C)n(CCO)ccc1=O`, the TGI with EKVX NSCLC, with HOP-92 NSCLC, with K-562 leukemia, in the assay with MALME-3M melanoma, with OVCAR-4 ovarian and in the assay on OVCAR-5 ovarian was greater than 100 µM throughout. Also, the TGI (in general, the concentration at which net growth stops) in the assay on OVCAR-8 ovarian was greater than 100 µM.

For `CCOC(=O)NC(=O)c1cn(C(CC)COC(=O)NCCCCCCNC(=O)OCC(CC)n2cc(C(=O)NC(=O)OCC)c(=O)[nH]c2=O)c(=O)[nH]c1=O` (stereo not drawn), the TGI in the assay with EKVX NSCLC, with HCC-2998 colon, in the assay on K-562 leukemia, with MALME-3M melanoma, in the assay with OVCAR-4 ovarian and in the assay on OVCAR-8 ovarian was greater than 100 µM throughout.

Regarding `COC(=O)/C(=N/O)C(C(=O)C=C(C)C)C(=O)C(=O)Nc1nc2ccc([N+](=O)[O-])cc2s1` (stereo not drawn), the TGI with EKVX NSCLC was 57.8 µM; in the assay on HCC-2998 colon, greater than 100 µM; with HOP-92 NSCLC, 42.8 µM; with K-562 leukemia it was greater than 100 µM; in the assay with MALME-3M melanoma it was greater than 100 µM; in the assay with OVCAR-4 ovarian it was greater than 100 µM. Further, the figures for the TGI in the assay on OVCAR-5 ovarian, in the assay on OVCAR-8 ovarian and with SF-539 CNS were greater than 100 µM, greater than 100 µM and 78.3 µM, respectively.

On to `CCOCN1COCN(C)C1=O`, for which the TGI with EKVX NSCLC, in the assay with HCC-2998 colon, with HOP-92 NSCLC, in the assay with K-562 leukemia, in the assay with MALME-3M melanoma and with OVCAR-4 ovarian was greater than 100 µM throughout. Also, the TGI in the assay on OVCAR-5 ovarian, with OVCAR-8 ovarian and in the assay on SF-539 CNS was greater than 100 µM each time.

Take `Cc1cc2c(c(C(N)=O)c1C)-c1ccccc1C2=O`: the TGI in the assay on EKVX NSCLC, with HCC-2998 colon, in the assay on HOP-92 NSCLC, in the assay with K-562 leukemia, with MALME-3M melanoma and with OVCAR-4 ovarian was greater than 100 µM each time. For the same compound, the TGI with OVCAR-5 ovarian, in the assay with OVCAR-8 ovarian and with SF-539 CNS was greater than 100 µM throughout.

As for `O=C(Cc1nc2c3c(ccc2[nH]c1=O)C(=O)c1ccccc1C3=O)C(=O)Nc1ccccc1[N+](=O)[O-]`, the TGI in the assay on EKVX NSCLC was found to be 36.7 µM; in the assay with HCC-2998 colon it was 36.8 µM; with HOP-92 NSCLC, 38.5 µM; in the assay with K-562 leukemia, 37 µM; with MALME-3M melanoma, 36.6 µM; with OVCAR-4 ovarian it was 32.4 µM. Further, the values for the TGI with OVCAR-5 ovarian, in the assay on OVCAR-8 ovarian and in the assay with SF-539 CNS were 41.1 µM, 39.6 µM and 34.6 µM, respectively.

Take `COc1cccc(/C=N/[N-]C(=O)c2ccncc2)c1[O-].COc1cccc(/C=N/[N-]C(=O)c2ccncc2)c1[O-].[O]=[U](=[O])([OH2+])[OH2+]`: the GI50 (commonly the concentration giving 50% growth inhibition) in the assay with EKVX NSCLC is 2.86 µM; with HCC-2998 colon, 12.8 µM; in the assay with HOP-92 NSCLC it was 14.3 µM; with K-562 leukemia, 5.29 µM; with MALME-3M melanoma, 12.8 µM; with OVCAR-4 ovarian, greater than 34.2 µM. In addition, the GI50 is 6.79 µM in the assay with OVCAR-5 ovarian, 5.11 µM in the assay on OVCAR-8 ovarian and 4.27 µM with SF-539 CNS. In addition, the TGI was greater than 100 µM with EKVX NSCLC; greater than 100 µM in the assay with HCC-2998 colon; 54.5 µM with HOP-92 NSCLC; greater than 100 µM with K-562 leukemia; greater than 66.3 µM in the assay on MALME-3M melanoma; greater than 100 µM in the assay on OVCAR-4 ovarian. Moreover, the TGI with OVCAR-5 ovarian is greater than 100 µM; in the assay with OVCAR-8 ovarian, greater than 100 µM; in the assay with SF-539 CNS, greater than 42.8 µM.

Turning to `Nc1c(-c2ccccc2-c2c(N)[n+]([O-])c3ccccc3[n+]2[O-])[n+]([O-])c2ccccc2[n+]1[O-]`, the TGI in the assay with EKVX NSCLC was 57.1 µM; in the assay on HCC-2998 colon it was greater than 100 µM; with HOP-92 NSCLC, greater than 100 µM; with K-562 leukemia it was greater than 71.8 µM; in the assay with MALME-3M melanoma it was greater than 100 µM; with OVCAR-4 ovarian it was greater than 100 µM. Moreover, the TGI in the assay on OVCAR-5 ovarian is greater than 100 µM; with OVCAR-8 ovarian, 81.5 µM; in the assay on SF-539 CNS, 71.7 µM.

In the case of `Cn1c(=O)nc2n(-c3cc(C(F)(F)F)cc(C(F)(F)F)c3)c3ccccc3nc-2c1=O`, the TGI with EKVX NSCLC, in the assay with HCC-2998 colon, in the assay on HOP-92 NSCLC, in the assay with K-562 leukemia, in the assay with MALME-3M melanoma and in the assay on OVCAR-4 ovarian was greater than 100 µM throughout. Also, the TGI in the assay with OVCAR-5 ovarian, with OVCAR-8 ovarian and in the assay with SF-539 CNS was greater than 100 µM in each case.

As for `CCC1CN2CCc3cc(OC)c(OC)cc3C2CC1CC1c2cc(OC)c(OC)cc2CCN1C(=O)C1CCCN1` (stereo not drawn), the TGI is greater than 100 µM with EKVX NSCLC; 58.6 µM in the assay on HCC-2998 colon; greater than 100 µM in the assay on HOP-92 NSCLC; 51.4 µM in the assay on K-562 leukemia; 37.3 µM in the assay on MALME-3M melanoma; 87.9 µM in the assay with OVCAR-4 ovarian. Further, the TGI in the assay with OVCAR-5 ovarian is greater than 100 µM; with OVCAR-8 ovarian, greater than 100 µM; with SF-539 CNS, 37.8 µM.

For `COC(=O)/C([Se]c1c(C)cc(C)cc1C)=C(/[Se]c1c(C)cc(C)cc1C)C(=O)OC`, the TGI in the assay with EKVX NSCLC, in the assay with HCC-2998 colon, in the assay with HOP-92 NSCLC, with K-562 leukemia, in the assay on MALME-3M melanoma and in the assay on OVCAR-4 ovarian was greater than 100 µM in each case. The TGI in the assay with OVCAR-5 ovarian, in the assay on OVCAR-8 ovarian and in the assay with SF-539 CNS was greater than 100 µM in each case.

`CC(C(=O)c1ccc(Cl)cc1)/C(=N/NC(=O)NN)C(=O)Nc1cccc(C(F)(F)F)c1` (stereo not drawn): the TGI with EKVX NSCLC, in the assay with HCC-2998 colon, in the assay on K-562 leukemia, in the assay with MALME-3M melanoma, in the assay on OVCAR-4 ovarian and in the assay with OVCAR-5 ovarian was greater than 100 µM in each case. Also, the TGI with OVCAR-8 ovarian and with SF-539 CNS was greater than 100 µM in each case.

In the case of `Cc1ccccc1C1=[N+]([O-])c2ccc(Cl)cc2C1=O`, the TGI in the assay with EKVX NSCLC was determined as 25 µM; in the assay with HCC-2998 colon it was 29.4 µM; in the assay on HOP-92 NSCLC, 28 µM; in the assay with K-562 leukemia, 24.1 µM; in the assay on MALME-3M melanoma, 30.6 µM; with OVCAR-5 ovarian it was 37.8 µM. Besides, the results for the TGI in the assay with OVCAR-8 ovarian and with SF-539 CNS were 19.3 µM and 31.6 µM, respectively.

With `CC(C)=C1CCC(CN(C)C)C1=O` (stereo not drawn), the TGI with EKVX NSCLC was 31.9 µM; with HCC-2998 colon, 33.2 µM; in the assay with HOP-92 NSCLC, 40.6 µM; in the assay on K-562 leukemia it was 31 µM; with MALME-3M melanoma, 30.2 µM; in the assay with OVCAR-4 ovarian it was 28.4 µM. The TGI in the assay with OVCAR-5 ovarian is greater than 100 µM; in the assay on OVCAR-8 ovarian, 49.4 µM; in the assay on SF-539 CNS it was greater than 100 µM.
